The assay deals with CD33 CAR T cells. Put plainly: Inhibitor treatment during ex vivo culture. The assay is classed as cell-based, human. To be noted: for proliferating CD8^+ cells that remained CCR7^+: CellTrace Violet, control T cells about 41%; for total CD8^+ CAR T cells / T cell expansion: 4 days of inhibitor treatment. As for the experimental part:
Inhibitor treatment during ex vivo culture: CD33 CAR or control transduced T cells were labeled with CellTrace Violet (ThermoFisher) 5 days after their initial activation. […] Cells were analyzed 4 days later by flow cytometry.
Day 1: Separated PBMCs from apheresis ring of donor. Enriched human T cells by Pan T cell negative selection kit. Activate human T cells by anti-human CD3 and anti-human CD28 (1 ug/ml) coated plates overnight.
Day2: Transduced human T cells with anti-CD33 CAR gamma-retrovirus or MSCV control by retronectin coated non-tissue culture plate.
Day3: Resuspend the cells and plate them in the IL-2 RPMI medium in the tissue culture plate.
100U/ml IL-2 was added to cultures every 2 days. Cells were analyzed 4 days later by flow Cytometry.

The mark [1] stands for this setting: 4 days, LY294002 10 μM, IC87114 10 μM, API-2 1 μM, rapamycin 50 nM, PP242 1 μM, DCA 10 mM, vs untreated CD33 CAR T cells.

Turning to `O=c1cc(N2CCOCC2)oc2c(-c3ccccc3)cccc12` [LY294002], for the setting “4 days”, the “proliferating CD8^+ cells that remained CCR7^+” value was “about 43%”.

As to `Cc1ccccc1-n1c(Cn2cnc3c(N)ncnc32)nc2cccc(C)c2c1=O` [IC87114], for the setting “4 days”, the “percentage of CCR7^+ cells among undivided CD8^+ cells” value is recorded as “did not alter” and the “proliferating CD8^+ cells that remained CCR7^+” value was approximately 33%. For the same compound, the “CD8^+ TEM or TEFF cell numbers” value (4 days, 10 μM) is given as “did not significantly alter”. The “number of CD8^+ TN and TCM cells” value (4 days, same concentrations, vs untreated CD33 CAR T cells) was “increased significantly”. Besides, the “percent of CD8^+ TN and TCM cells” value under setting [1] is given as “increased significantly”. The “CD8^+ TEM or TEFF cell percent” value (Example 4: 4 days, different concentrations) is listed as “significant decrease”. The “percent of CD8^+ TN and TCM cells” value (Example 4: 4 days, different concentrations, vs untreated CD33 CAR T cells) was “increased significantly”.

For `CC(C)n1nc(-c2cc3cc(O)ccc3[nH]2)c2c(N)ncnc21` [PP242], the “total CD8^+ CAR T cells / T cell expansion” value was “substantial decrease”. The “percent of CD8^+ TN and TCM cells” value under setting [1] is recorded as “no detectable effect”. In addition, the “number of CD8^+ TEFF cells” value (4 days, rapamycin 50 nM, PP242 1 μM) is on record as “decreased”.

With `O=C(O)C(Cl)Cl` [DCA, dichloroacetic acid], the “total CD8^+ CAR T cells / T cell expansion” value is “significantly inhibited T cell expansion”. In addition, the “percent of CD8^+ TN and TCM cells” value under setting [1] was “increased”.

These data come from patent publication US12053490B2, “Methods and compositions for treating CD33+ cancers and improving in vivo persistence of chimeric antigen receptor T cells” (ST. JUDE CHILDREN'S RESEARCH HOSPITAL, INC., priority 2017, dated 2024).
